The values that follow come from patent publication US20090202494A1, “Combined use of glp-1 agonists and gastrin for regulating blood glucose levels” (priority 2004, published 2009).

What all share (type): in vivo, mouse
The subject of assay [1] is acutely-diabetic NOD mice. Nature of the assay: Example 1: fasting blood glucose in acutely-diabetic NOD mice treated with GLP-1 or GLP-1 + Gastrin. On the procedure: Female NOD mice ages 12-16 weeks were treated for 18 days only with vehicle (PBS), GLP-1 (300 μg/kg/day), or GLP-1 (300 μg/kg/day)+Gastrin (3 μg/kg/day), by injection intraperitoneally twice daily within 2 days after diabetes onset. Onset of diabetes was determined by fasting blood glucose (FBG) levels (9-15 mM compared with normal FBG <6.0 mM). The mice were monitored daily for urine glucose and weekly for FBG levels.
At the start of the treatments, fasting blood glucose levels ranged between 11-14 mM. After 18 days of treatments, FBG was 24±1 mM in vehicle-treated mice, 13±2 mM in mice treated with GLP-1 alone, and 6±1 mM in mice treated with the combination of GLP-1 and Gastrin (mean±SE, n=4 mice in treated groups; n=6 mice in the control group).
After 18 days of treatment therapy was stopped and FBG was monitored weekly for additional six weeks. […] Comparatively, the untreated group of animals had to be sacrificed due to the severity of the disease after five weeks.

Assay [2] relates to acutely-diabetic NOD mice. Nature of the assay: Example 2: fasting blood glucose in acutely-diabetic NOD mice, during treatment and 6 weeks after. On the procedure:
(§1) The mice were monitored daily for urine glucose levels and weekly for FBG levels during the treatment and for an additional 6 weeks after the treatment was stopped. The pancreatic insulin levels were determined in each group as well as histological analysis of the pancreatic tissue was performed. Pancreatic tissues were fixed and stained for insulin producing cells. The beta cell mass was determined by morphometric analysis.

The test system of assay [3] is acutely-diabetic NOD mice. Nature of the assay: Example 2: pancreatic insulin levels in NOD mice. On the procedure:
as §1

For GLP-1(7-36) Amide, Human, the “FBG course during six weeks after treatment was stopped” value in assay [1] (FBG monitored weekly for six weeks post treatment) was “transient improvement in FBG levels up to 2 weeks after the treatment was stopped”. For the same substance, the “fasting blood glucose (FBG) after 18 days of treatments” value in assay [1] (female NOD mice, i.p. twice daily for 18 days, GLP-1 300 μg/kg/day, Gastrin 3 μg/kg/day, mean±SE, n=4, normal FBG <6.0 mM) turned out to be 13 ± 2 mM. In addition, in assay [2] (NOD mice, i.p. twice daily, combination printed as 30 μg/kg/day of GLP-1 and 3 μg/kg/day of G1), the “fasting blood glucose after 18 days of daily treatments” value amounted to 12.5 ± 2.2 mM. For the same substance, in assay [2] (after treatments stopped, animals suffering from diabetic complications), the “maximal blood glucose levels reached post treatment” value is on record as “over 30 mM”. Moreover, in assay [3], the “effect on pancreatic insulin levels (in words)” value is listed as “modest effect only”.
